These results are taken from patent US12508251B2, “CD4 mimic compound with anti-HIV activity” (NATIONAL UNIVERSITY CORPORATION KUMAMOTO UNIVERSITY, priority 2019, dated 2025).

The term IC50 denotes the point on the concentration scale where inhibition reaches its midpoint. What is called CC50 is the concentration that lowers cell viability or growth by half. What is called half-life is the time in which the quantity being followed falls by half.

Entries after “also recorded” stand apart in the source; their conditions may differ. Read-outs that look alike come from different tables or passages of the source.

The test system of one data set is HIV isolate (KP5mvcR). Briefly: microbe, parasite or virus in culture. It counts as cell-based, HIV-1. Particulars: for SI (selectivity index): CC50/IC50, TZM-bl cells, KP-5mvcR; for IC50: read-out: IC50 KP-5mvcR. An excerpt: (§1) In this Example, TZM-bl cells (available from NIH AIDS Reagent Program (https://www.aidsreagent.org/Index.cfm)) were used for individual evaluations. TZM-bl cells have CD4/CCR5/CXCR4 on the surface and express luciferase when infected with HIV. In this manner, TZM-bl cells serve as indicator cells. In the cells, β-galactosidase gene linked to HIV-1 LTR sequence is integrated. When the cells are infected with HIV-1, the tat gene of HIV-1 expresses a transcriptional activator Tat, which acts on the promoter region of LTR to express β-galactosidase. When a substrate is added, enzymatic cleavage occurs to produce galactose and luciferin. Luciferin is oxidized by luciferase to generate chemiluminescence, which can be detected by a luminometer to determine the number of cells infected with HIV-1.
2) IC50 (Calculation of Anti-HIV Activity)
After each compound was serially diluted, TZM-bl cells (1×10^4) and 100TCID50 of HIV isolate (KP5mvcR) were added, and then, cultured for 48 hours. Thereafter, the cells were collected and a Luc reporter reagent was added. The amount of luminescence was measured to calculate the inhibition rate of infection (IC50). The HIV isolate (KP5mvcR) is an MVC resistant HIV clone, which was obtained by subjecting a clinical isolate KP-5 (YTA) to passage culture with PM1 CCR5 cells in the presence of MVC over 48 passages to obtain MVC resistant KP-5Env, which was inserted into NL43 vector (Yoshimura K, et al., J. Gen. Virol., 95, 1816-1826, 2014).

Data set [1] can be described thus: Cytotoxicity (CC50) in TZM-bl cells, luminescence (CTG). It counts as cell-based. The settings on record: human.
Text: as §1, with “([…].org/Index.cfm))” for “(https://www.aidsreagent.org/Index.cfm))”, “HIV-1. […] After each compound was serially diluted, TZM-bl cells (1×10^4) were added, cultured for 48 hours and collected. A Luc reporter reagent was added and the amount of luminescence (reagent: CTG) was measured […].” for “HIV-1.”

The next data set relates to TZM-bl cells. The description is as above. It counts as cell-based. Particulars: TZM-bl cells, cultured for 48 hours.
Text: as §1, with “([…].org/Index.cfm))” for “(https://www.aidsreagent.org/Index.cfm))”, “HIV-1. […] After each compound was serially diluted, TZM-bl cells (1×10^4) were added, cultured for 48 hours and collected. A Luc reporter reagent was added and the amount of luminescence (reagent: CTG) was measured […].” for “HIV-1.”

A short description of data set [2]: Stability on incubation with human liver microsomes, HPLC. It counts as in vitro ADME. The settings on record: 60 minutes at 37° C., NADPH, NaPB pH 7.4. On the procedure:
More specifically, TKB-002 trifluoroacetate was dissolved in a 100 mM sodium phosphate buffer (NaPB, pH 7.4) to obtain a 0.3 mM solution. This solution (183 μL) was mixed with 20 mM NADPH (2 μL) in 100 mM NaPB (pH 7.4), and 5 μL of 20 mg/mL human liver microsome (Human Microsomes, 50 Donors (ThermoFisher Scientific, cat #: HMMCPL, Lot #: PL050E-A)) solution. After the mixture was pre-incubated at 37° C. for 5 minutes, 20 mM NADPH solution (10 μL) was added to the mixture, which was incubated while gently stirring for 60 minutes at 37° C.
Subsequently, 200 μL of ethyl acetate was added to the mixture to terminate the reaction. The mixture was stirred by a vortex mixer and centrifuged at 3,000 rpm for 5 minutes. The supernatant was filtered and ethyl acetate was removed with nitrogen gas.
To the mixture, 50 μL of MeCN containing 0.1% TFA was added and analysis was carried out by HPLC in the same conditions as in Reference Example 1 and Example 4.
Background: Liver microsomes are a subcellular fraction often used to study metabolism.

Data set [3] is described as follows: Blood half-life after intravenous injection, blood concentration by HPLC. It counts as in vivo, Macaque monkey. On the procedure: A Macaque monkey (MM616, body weight 8.00 kg) was intravenously injected with YIR-821 at a dose of 192 mg (10.1 mg/mL). A blood sample was taken from the monkey, 21, 39, 63, 91, 98, 113, 143, 201, 328 and 453 minutes later, and the concentration of YIR-821 in the blood was measured by HPLC.
HPLC conditions are as follows. • Measuring device: JASCO PU-2089 plus (JASCO Corporation, Ltd.) • Column: Cosmosil 5C18-ARII column (4.6×250 mm, Nacalai Tesque, Inc.) • Solvent A: H2O containing 0.1% (v/v) TFA • Solvent B: CH3CN containing 0.1% (v/v) TFA • Gradient: 20-50% solvent B in solvent A, 30 minutes • Flow rate: 1 cm^3/min • Detection: Detection at 260 nm-UV
In the same manner as in Reference Example 1, Macaque monkey (MM616, body weight 8.78 kg) was intravenously injected with TKB-002 trifluoroacetate obtained in Example 2 at a dose of 23.4 μmol (33.2 mg/20 mL). A blood sample was taken before, during and after administration (at a time point of 10 minutes, 37 minutes, 1 hour, 2.5 hours, 4.5 hours, 6.5 hours and 24 hours after administration). Blood concentration was measured by HPLC in the same conditions as in Reference Example 1.

Data set [4] in a line: In vitro decomposition releasing the alkyl or PEG chain in PBS. It counts as physicochemical. Particulars: PBS of pH7.4 at 37° C. As to the method:
The compound obtained in Example 5 (YIS-527) has an alkyl chain bound to a side chain of YIR-821 via a —C(═O)O— group, and it is assumed that the compound is hydrolyzed in vitro and in vivo. Accordingly, in this Example, an alkyl chain released in vitro was measured.
With respect to compound (YIS-540) having a PEG chain bound to a side chain of YIR-821 via a —C(═O)O— group obtained in Example 6, the PEG chain released in vitro was measured in the same manner as in Example 7.

Where [5] appears, read: Human immunodeficiency virus 1, TZM-bl, 48 h.
[6] abbreviates: TZM-bl cells, 100TCID50 of KP5mvcR, 48 hours.

As to `O=C1Nc2ccc(Cl)cc2[C@@](C#CC2CC2)(C(F)(F)F)O1` [EFV, efavirenz, reference compound], the “SI (selectivity index)” value in the data set on HIV isolate (KP5mvcR) is given as 6,829. For the same compound, in the data set with HIV isolate (KP5mvcR) (setting [5]), the IC50 turned out to be 0.0041 ± 0.00099 µM. Further, the CC50 at 48 h in data set [1] (TZM-bl cells, cultured for 48 hours, read-out: CC50) is 28 ± 3.4 µM.

As to `CC1(C)CC(NC(=O)C(=O)Nc2ccc(Cl)cc2)CC(C)(C)N1` [NBD-556, reference compound], in the data set on HIV isolate (KP5mvcR) (setting [6]), the IC50 was 0.27 ± 0.052 µM. The compound also displayed a cytotoxic concentration (CC50) in the data set on TZM-bl cells of 177 ± 9.5 µM.

Regarding `COCCOCCOCCOCCOCCNC(=O)CCC(=O)N[C@@H](CCCNC(=N)N)C(=O)NCCN1CCC(NC(=O)C(=O)Nc2ccc(Cl)cc2)CC12CCCCC2` (stereo partly drawn) [TKB-001, N^1-((2S)-1-((2-(4-(2-((4-chlorophenyl)amino)-2-oxoacetamido)-1-azaspiro[5.5]undecan-1-yl)ethyl)amino)-5-guanidino-1-oxopentan-2-yl)-N4-(2,5,8,11,14-pentaoxahexadecan-16-yl)succinamide], the “SI (selectivity index)” value in the data set with HIV isolate (KP5mvcR) was above 769. Besides, the IC50 in the data set with HIV isolate (KP5mvcR) (setting [5]) amounted to 0.13 ± 0.026 µM. For the same compound, the CC50 at 48 h in data set [1] is above 100 µM.

For the compound `COCCOCCOCCOCCOCCOCCOCCOCCOCCOCCOCCOCCNC(=O)CCC(=O)N[C@@H](CCCNC(=N)N)C(=O)NCCN1CCC(NC(=O)C(=O)Nc2ccc(Cl)cc2)CC12CCCCC2` (stereo partly drawn) [TKB-002, N^1-((2S)-1-((2-(4-(2-((4-chlorophenyl)amino)-2-oxoacetamido)-1-azaspiro[5.5]undecan-1-yl)ethyl)amino)-5-guanidino-1-oxopentane-2-yl)-N^4-(2,5,8,11,14,17,20,23,26,29,32,35-dodecaoxaheptatriacontan-37-yl)succinamide], the “SI (selectivity index)” value with HIV isolate (KP5mvcR) is given as >1,000. In the data set on HIV isolate (KP5mvcR) (setting [5]), the IC50 was below 0.1 µM. The “stability in the presence of human liver microsomes (HPLC peak intensity)” value in data set [2] is “the intensity of the peak was the same as before incubation; also recorded: stable even in the presence of human liver microsomes”. Besides, the 50% cytotoxic concentration (CC50) at 48 h in data set [1] is above 100 µM. Also, the “blood half-life relative to YIR-821” value in data set [3] (Macaque monkey, intravenous injection) was 3.48 times. The compound also came in with a half-life in data set [3] (blood, 23.4 μmol, Macaque monkey MM616, intravenous injection) of 1.8 h.

Consider `COCCOCCOCCOCCOCCOCCOCCOCCOCCOCCOCCOCCOCCOCCOCCOCCOCCOCCOCCOCCOCCOCCOCCOCCNC(=O)CCC(=O)N[C@@H](CCCNC(=N)N)C(=O)NCCN1CCC(NC(=O)C(=O)Nc2ccc(Cl)cc2)CC12CCCCC2` (stereo partly drawn) [TKB-003], for which, in the data set on HIV isolate (KP5mvcR) (setting [6]), the IC50 is below 0.1 µM. This compound also displayed a CC50 in the data set with TZM-bl cells of 40 ± 14 µM.

With `CCCCCCCCCCCCCCCCNC(=O)CCC(=O)OC(CCCNC(=N)N)C(=O)NCCN1CCC(NC(=O)C(=O)Nc2ccc(Cl)cc2)CC12CCCCC2` (stereo not drawn) [YIS-527, 1-((2-(4-(2-((4-chlorophenyl)amino)-2-oxoacetamido)-1-azaspiro[5.5]undecan-1-yl)ethyl)amino)-5-guanidino-1-oxopentan-2-yl 4-(hexadecylamino)-4-oxobutanoate], the “SI (selectivity index)” value in the data set on HIV isolate (KP5mvcR) is 14. In addition, the IC50 in the data set on HIV isolate (KP5mvcR) (setting [5]) was 1.2 ± 0.11 µM. In addition, the “decomposition releasing the alkyl or PEG chain” value in data set [4] was “decomposition reaction was observed”. This compound gave a CC50 at 48 h in data set [1] of 17 ± 0.22 µM.

Regarding `COCCOCCOCCOCCOCCNC(=O)CCC(=O)OC(CCCNC(=N)N)C(=O)NCCN1CCC(NC(=O)C(=O)Nc2ccc(Cl)cc2)CC12CCCCC2` (stereo not drawn) [YIS-540, 1-((2-(4-(2-((4-chlorophenyl)amino)-2-oxoacetamido)-1-azaspiro[5.5]undecan-1-yl)ethyl)amino)-5-guanidino-1-oxopentan-2-yl 18-oxo-2,5,8,11,14-pentaoxa-17-azahenicosan-21-oate], in the data set with HIV isolate (KP5mvcR), the “SI (selectivity index)” value was 6412. The IC50 with HIV isolate (KP5mvcR) (setting [5]) amounted to 0.017 ± 0.011 µM. Further, the “decomposition releasing the alkyl or PEG chain” value in data set [4] is “decomposition reaction was observed”. Moreover, the CC50 at 48 h in data set [1] was 109 ± 8.2 µM.
